A word on the IC50: it is the concentration needed to halve the response being measured. Higher therefore signals a need for much substance.

In this assay the target is PI3K delta (Homo sapiens, UniProt O00329). In words: Luciferase-coupled chemiluminescence kinase assay (ATP consumption, KinaseGlo). In kind it is biochemical. The gist of the method: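 Compound, kinase and ATP (≤ KM) reacted 2 h at ambient temperature, then remaining ATP quantified with luciferase-luciferin (KinaseGlo) luminescence as percent consumed.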
Chain of PI3K delta (O00329 whole entry): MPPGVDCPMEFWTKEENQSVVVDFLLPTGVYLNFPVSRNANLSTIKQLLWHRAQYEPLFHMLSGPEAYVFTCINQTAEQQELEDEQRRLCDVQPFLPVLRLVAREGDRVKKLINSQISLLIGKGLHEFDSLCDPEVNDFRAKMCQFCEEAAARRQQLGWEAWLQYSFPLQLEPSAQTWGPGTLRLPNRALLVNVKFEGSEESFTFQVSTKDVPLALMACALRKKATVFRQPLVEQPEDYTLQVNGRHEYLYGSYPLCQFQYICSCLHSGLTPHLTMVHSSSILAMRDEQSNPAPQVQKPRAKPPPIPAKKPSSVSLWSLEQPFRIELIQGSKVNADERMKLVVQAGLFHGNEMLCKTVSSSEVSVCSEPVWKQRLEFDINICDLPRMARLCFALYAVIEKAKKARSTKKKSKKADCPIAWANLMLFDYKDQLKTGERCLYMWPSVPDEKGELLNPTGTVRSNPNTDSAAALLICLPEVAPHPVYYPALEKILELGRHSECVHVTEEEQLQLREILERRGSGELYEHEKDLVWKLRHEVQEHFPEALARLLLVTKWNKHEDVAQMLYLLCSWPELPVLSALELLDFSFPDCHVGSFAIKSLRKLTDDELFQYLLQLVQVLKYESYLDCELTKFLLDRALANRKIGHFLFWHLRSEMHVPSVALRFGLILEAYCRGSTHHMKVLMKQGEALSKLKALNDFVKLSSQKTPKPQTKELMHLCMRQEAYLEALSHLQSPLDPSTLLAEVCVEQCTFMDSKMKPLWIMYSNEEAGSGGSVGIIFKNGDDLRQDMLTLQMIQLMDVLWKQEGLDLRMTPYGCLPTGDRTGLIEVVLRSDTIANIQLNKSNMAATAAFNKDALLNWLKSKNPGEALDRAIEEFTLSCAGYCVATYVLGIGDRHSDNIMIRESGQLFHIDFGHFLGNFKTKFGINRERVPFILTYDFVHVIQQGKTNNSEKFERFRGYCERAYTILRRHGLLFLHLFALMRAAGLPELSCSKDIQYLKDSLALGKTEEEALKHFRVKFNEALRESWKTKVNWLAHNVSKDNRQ
Chain of PI3K delta (P27986 whole entry partner): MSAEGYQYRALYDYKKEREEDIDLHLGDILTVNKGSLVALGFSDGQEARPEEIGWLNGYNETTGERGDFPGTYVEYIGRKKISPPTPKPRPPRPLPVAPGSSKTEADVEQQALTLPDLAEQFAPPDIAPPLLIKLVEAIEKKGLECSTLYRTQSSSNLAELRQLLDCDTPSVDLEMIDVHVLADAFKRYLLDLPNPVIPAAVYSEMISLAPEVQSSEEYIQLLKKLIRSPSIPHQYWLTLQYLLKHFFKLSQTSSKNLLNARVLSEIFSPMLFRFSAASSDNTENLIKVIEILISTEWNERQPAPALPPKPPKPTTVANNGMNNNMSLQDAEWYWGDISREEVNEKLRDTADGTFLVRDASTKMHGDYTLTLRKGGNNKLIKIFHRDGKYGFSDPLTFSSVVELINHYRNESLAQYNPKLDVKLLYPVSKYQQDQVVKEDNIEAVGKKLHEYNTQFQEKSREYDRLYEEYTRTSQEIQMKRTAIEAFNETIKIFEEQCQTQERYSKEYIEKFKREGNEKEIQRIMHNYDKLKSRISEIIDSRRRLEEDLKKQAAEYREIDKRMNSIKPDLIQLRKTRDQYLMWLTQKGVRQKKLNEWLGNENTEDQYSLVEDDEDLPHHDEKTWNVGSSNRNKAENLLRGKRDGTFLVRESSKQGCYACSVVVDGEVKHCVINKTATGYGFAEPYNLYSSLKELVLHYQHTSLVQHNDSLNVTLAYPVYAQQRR
On the technique in general: In Kinase-Glo more light means more ATP remaining.
For `Cn1c(C(=O)N2CC(O)C2)nc2c(N3CCC(n4c(=O)[nH]c5ccccc54)CC3)ncnc21` [Compound 74, 1-(1-{8-[(3-hydroxyazetidin-1-yl)carbonyl]-9-methyl-9H-purin-6-yl}piperidin-4-yl)-1,3-dihydro-2H-benzimidazol-2-one], the concentration for half-maximal inhibition (IC50) was in the range of 50 to 250 nM.

In turn, `Cn1c(C(=O)NCC2CC2)nc2c(N3CCC4(CC3)CC(=O)c3ccccc34)ncnc21` [Compound 119, N-(cyclopropylmethyl)-9-methyl-6-(3-oxo-2,3-dihydro-1′H-spiro[indene-1,4′-piperidin]-1′-yl)-9H-purine-8-carboxamide] displayed a half-inhibitory concentration (IC50) of 250 to 500 nM. With `COc1ncc(-c2nc3c(N4CCC(n5c(=O)[nH]c6ccccc65)CC4)ncnc3n2C)c(OC)n1` [Compound 308, 1-(1-{8-[2,4-bis(methyloxy)pyrimidin-5-yl]-9-methyl-9H-purin-6-yl)piperidin-4-yl)-1,3-dihydro-2H-benzimidazol-2-one] the figure was 50 to 250 nM; with `Cn1cc(-c2nc3c(N4CCC(n5c(=O)[nH]c6c(F)cccc65)CC4)ncnc3n2C)cn1` [Compound 295, 4-fluoro-1-{1-[9-methyl-8-(1-methyl-1H-pyrazol-4-yl)-9H-purin-6-yl]piperidin-4-yl}-1,3-dihydro-2H-benzimidazol-2-one], less than 50 nM; with `Cn1c(-c2ccncc2)nc2c(N3CCC(n4c(=O)[nH]c5ccccc54)CC3)ncnc21` [Compound 266, 1-[1-(9-methyl-8-pyridin-4-yl-9H-purin-6-yl)piperidin-4-yl]-1,3-dihydro-2H-benzimidazol-2-one], 250 to 500 nM. The figure for `Cn1c(C(=O)NCC2CC2)nc2c(N3CCC(c4c[nH]c5ccccc45)CC3)ncnc21` [Compound 100, N-(cyclopropylmethyl)-6-[4-(1H-indol-3-yl)piperidin-1-yl]-9-methyl-9H-purine-8-carboxamide] is 500 to 1500 nM; for `Cn1c(C(=O)NCC2CC2)nc2c(N3CC(n4c(=O)[nH]c5cc(C(F)(F)F)ccc54)C3)ncnc21` [Compound 145, N-(cyclopropylmethyl)-9-methyl-6-{3-[2-oxo-5-(trifluoromethyl)-2,3-dihydro-1H-benzimidazol-1-yl]azetidin-1-yl}-9H-purine-8-carboxamide] it is 250 to 500 nM.

`Cn1c(C(=O)NCC2CC2)nc2c(N3CCC4(CC3)NC(=O)c3ccccc34)ncnc21` [Compound 142, N-(cyclopropylmethyl)-9-methyl-6-(3-oxo-2,3-dihydro-1′H-spiro[isoindole-1,4′-piperidir]-1′-yl)-9H-purine-8-carboxamide] had a 50% inhibitory concentration (IC50) of 500 to 1500 nM. Regarding `Cn1c(C(=O)NCC2CC2)nc2c(N3CCC4(CC3)C(=O)Nc3ccccc34)ncnc21` [Compound 6, N-(Cyclopropylmethyl)-9-methyl-6-(2-oxo-1,2-dihydro-1′H-spiro[indole-3,4′-piperidin]-1′-yl)-9H-purine-8-carboxamide], the IC50 lay within 50 to 250 nM.

On to `CCn1c(-c2cnc(OC)nc2OC)nc2c(N3CCC(n4c(=O)[nH]c5ccccc54)CC3)ncnc21` [Compound 321, 1-(1-{8-[2,4-bis(methyloxy)pyrimidin-5-yl]-9-ethyl-9H-purin-6-yl}piperidin-4-yl)-1,3-dihydro-2H-benzimidazol-2-one], for which the IC50 lay within 500 to 1500 nM. As to `Cn1cc(-c2nc3c(N4CCN(c5ccccc5S(C)(=O)=O)CC4)ncnc3n2C)cn1` [Compound 350, 9-methyl-8-(1-methyl-1H-pyrazol-4-yl)-6-{4-[2-(methylsulfonyl)phenyl]piper-azin-1-yl}-9H-purine], the IC50 fell in the range of 500 to 1500 nM. With `Cn1cc(-c2nc3c(N4CCN(c5cccc(OCC(=O)N6CCCCCC6)c5)CC4)ncnc3n2C)cn1` [Compound 359, 6-(4-{3-[(2-azepan-1-yl-2-oxoethyl)oxy]phenyl}piperazin-1-yl)-9-methyl-8-(1-methyl-1H-pyrazol-4-yl)-9H-purine] the figure was 250 to 500 nM; with `Cn1c(C(=O)OCC2CC2)nc2c(N3CCC(n4c(=O)[nH]c5ccccc54)CC3)ncnc21` [Compound 79, Cyclopropylmethyl 9-methyl-6-[4-(2-oxo-2,3-dihydro-1H-benzimidazol-1-yl)piperidin-1-yl]-9H-purine-8-carboxylate], 50 to 250 nM; with `Cn1c(C(=O)NCC(C)(C)O)nc2c(N3CCC4(CC3)C(=O)Nc3ccccc34)ncnc21` [Compound 83, N-(2-hydroxy-2-methylpropyl)-9-methyl-6-(2-oxo-1,2-dihydro-1′H-spiro[indole-3,4′-piperidin]-1′-yl)-9H-purine-8-carboxamide], 50 to 250 nM. The figure for `CCn1c(-c2cnc(NC)nc2)nc2c(N3CCC(n4c(=O)[nH]c5ccccc54)CC3)ncnc21` [Compound 307, 1-(1-{9-ethyl-8-[2-(methylamino)pyrimidin-5-yl]-9H-purin-6-yl)piperidin-4-yl)-1,3-dihydro-2H-benzimidazol-2-one] is less than 50 nM; for `Cn1c(C(=O)N2CC(O)C2)nc2c(N3CCC4(CC3)C(=O)Nc3ccccc34)ncnc21` [Compound 41, 1′-{8-[(3-hydroxyazetidin-1-yl)carbonyl]-9-methyl-9H-purin-6-yl}spiro[indole-3,4′-piperidin]-2(1H)-one] it is 50 to 250 nM; for `Cn1c(C(=O)NCc2cccc(F)c2)nc2c(N3CCC4(CC3)C(=O)Nc3ccccc34)ncnc21` [Compound 28, N-[(3-fluorophenyl)methyl]-9-methyl-6-(2-oxo-1,2-dihydro-1′H-spiro[indole-3,4′-piperidin]-1′-yl)-9H-purine-8-carboxamide] it is 250 to 500 nM. For the compound `Cc1ncc(-c2nc3c(N4CCC(n5c(=O)[nH]c6ccccc65)CC4)ncnc3n2C)n1C` [Compound 333, 1-{1-[8-(1,2-dimethyl-1H-imidazol-5-yl)-9-methyl-9H-purin-6-yl]piperidin-4-yl)-1,3-dihydro-2H-benzimidazol-2-one], the IC50 was less than 50 nM. `Cn1c(C(=O)NCCc2ccc(Cl)cc2)nc2c(N3CCC(n4c(=O)[nH]c5ccccc54)CC3)ncnc21` [Compound 63, N-[2-(4-chlorophenyl)ethyl]-9-methyl-6-[4-(2-oxo-2,3-dihydro-1H-benzimidazol-1-yl)piperidin-1-yl]-9H-purine-8-carboxamide] registered a half-maximal inhibitory concentration (IC50) of 500 to 1500 nM. With `Cn1c(C(=O)NCCCO)nc2c(N3CCC(n4c(=O)[nH]c5ccccc54)CC3)ncnc21` [Compound 48, N-(3-hydroxypropyl)-9-methyl-6-[4-(2-oxo-2,3-dihydro-1H-benzimidazol-1-yl)piperidin-1-yl]-9H-purine-8-carboxamide] the figure was 50 to 250 nM. Take `Cn1cc(-c2nc3c(N4CCN(S(=O)(=O)Cc5ccccc5)CC4)ncnc3n2C)cn1` [Compound 371, 9-methyl-8-(1-methyl-1H-pyrazol-4-yl)-6-{4-[(phenylmethyl)sulfonyl]piperazin-1-yl)-9H-purine]: the IC50 lay within 250 to 500 nM.

Take `CCCCc1nc2c(N3CCC(n4c(=O)[nH]c5ccccc54)CC3)ncnc2n1C` [Compound 93, 1-[1-(8-butyl-9-methyl-9H-purin-6-yl)piperidin-4-yl]-1,3-dihydro-2H-benzimidazol-2-one]: the half-inhibitory concentration (IC50) lay in the range of 500 to 1500 nM. With `CCn1c(C(=O)NCC2CCC2)nc2c(N3CCC(n4c(=O)[nH]c5ccccc54)CC3)ncnc21` [Compound 185, N-(cyclobutylmethyl)-9-ethyl-6-[4-(2-oxo-2,3-dihydro-1H-benzimidazol-1-yl)piperidin-1-yl]-9H-purine-8-carboxamide] the figure was less than 50 nM. In turn, `COC(=O)c1nc2c(N3CCC(n4c(=O)[nH]c5ccccc54)CC3)ncnc2n1C` [Compound 78, Methyl 9-methyl-6-[4-(2-oxo-2,3-dihydro-1H-benzimidazol-1-yl)piperidin-1-yl]-9H-purine-8-carboxylate] showed a half-maximal inhibitory concentration (IC50) of 500 to 1500 nM.

As for `CCCc1nnc(-c2nc3c(N4CCC(n5c(=O)[nH]c6ccccc65)CC4)ncnc3n2C)o1` [Compound 123, 1-{1-[9-methyl-8-(5-propyl-1,3,4-oxadiazol-2-yl)-9H-purin-6-yl]piperidin-4-yl}-1,3-dihydro-2H-benzimidazol-2-one], the IC50 is less than 50 nM.

`CCn1c(-c2cnn(C)c2)nc2c(N3CCC4(CC3)C(=O)Nc3ccccc34)ncnc21` [Compound 245, 1′-[9-ethyl-8-(1-methyl-1H-pyrazol-4-yl)-9H-purin-6-yl]spiro[indole-3,4′-piperidin]-2(1H)-one] displayed an IC50 of less than 50 nM. `Cn1c(-c2ccc(N)nc2)nc2c(N3CCC(n4c(=O)[nH]c5ncccc54)CC3)ncnc21` [Compound 343, 1-{1-[8-(6-aminopyridin-3-yl)-9-methyl-9H-purin-6-yl]piperidin-4-yl}-1,3-dihydro-2H-imidazo[4,5-b]pyridin-2-one] registered an IC50 of less than 50 nM.

For the compound `Cn1cc(-c2nc3c(N4CCN(C5=NS(=O)(=O)c6ccccc65)CC4)ncnc3n2C)cn1` [Compound 348, 6-[4-(1,1-dioxido-1,2-benzisothiazol-3-yl)piperazin-1-yl]-9-methyl-8-(1-methyl-1H-pyrazol-4-yl)-9H-purine], the half-inhibitory concentration (IC50) was in the range of 50 to 250 nM. `CCn1c(C(=O)NCC2CC2)nc2c(N3CCC4(CC3)C(=O)Nc3ccccc34)ncnc21` [Compound 163, N-(cyclopropylmethyl)-9-ethyl-6-(2-oxo-1,2-dihydro-1′H-spiro[indole-3,4′-piperidin]-1′-yl)-9H-purine-8-carboxamide] displayed a 50% inhibitory concentration (IC50) of less than 50 nM.

In turn, `Cn1c(C(=O)NCC2CC2)nc2c(N3CCC4(C3)C(=O)Nc3ccccc34)ncnc21` (centres unmarked) [Compound 98, N-(cyclopropylmethyl)-9-methyl-6-(2-oxo-1,2-dihydro-1′H-spiro[indole-3,3′-pyrrolidin]-1′-yl)-9H-purine-8-carboxamide] showed an IC50 of 500 to 1500 nM. On to `Cn1c(C(=O)NCC2CC2)nc2c(N3CCC(N4C(=O)Cc5ccccc54)CC3)ncnc21` [Compound 117, N-(cyclopropylmethyl)-9-methyl-6-[4-(2-oxo-2,3-dihydro-1H-indol-1-yl)piperidin-1-yl]-9H-purine-8-carboxamide], for which the concentration for half-maximal inhibition (IC50) lay within 50 to 250 nM. The figure for `Cn1cc(-c2nc3c(N4CCN(S(=O)(=O)c5ccc(Cl)cc5Cl)CC4)ncnc3n2C)cn1` [Compound 392, 6-{4-[(2,4-dichlorophenyl)sulfonyl]piperazin-1-yl}-9-methyl-8-(1-methyl-1H-pyrazol-4-yl)-9H-purine] is 500 to 1500 nM.

Source of the values: patent US20140058103A1, “Inhibitors of PI3K-Delta and Methods of Their Use and Manufacture” (Exelixis, Inc., priority 2010, published 2014).
